Results on four molecules are retold here after US11524932B2, “Lipids for use in lipid nanoparticle formulations” (ACUITAS THERAPEUTICS, INC., priority 2017, dated 2022).

Series [1] can be described thus: Determination of pKa of formulated lipids (TNS fluorescence assay in lipid nanoparticles). Type of series: physicochemical. The settings on record: lipid formulated in LNP (lipid/DSPC/cholesterol/PEG-lipid); pH giving half-maximal TNS fluorescence. The text has this: As described elsewhere, the pKa of formulated lipids is correlated with the effectiveness of LNPs for delivery of nucleic acids (see Jayaraman et al, Angewandte Chemie, International Edition (2012), 51(34), 8529-8533; Semple et al, Nature Biotechnology 28, 172-176 (2010)). In some embodiments, the preferred range of pKa is ˜5 to ˜7. […] Lipid nanoparticles comprising compound of structure (I)/DSPC/cholesterol/PEG-lipid (50/10/38.5/1.5 or 47.5:10:40.8:1.7 mol %) in PBS at a concentration of 0.4 mM total lipid were prepared using the in-line process as described in Example 1. TNS was prepared as a 100 μM stock solution in distilled water. Vesicles were diluted to 24 μM lipid in 2 mL of buffered solutions containing 10 mM HEPES, 10 mM MES, 10 mM ammonium acetate, and 130 mM NaCl, where the pH ranged from 2.5 to 11. An aliquot of the TNS solution was added to give a final concentration of 1 μM and following vortex mixing fluorescence intensity was measured at room temperature in a SLM Aminco Series 2 Luminescence Spectrophotometer using excitation and emission wavelengths of 321 nm and 445 nm. A sigmoidal best fit analysis was applied to the fluorescence data and the pKa was measured as the pH giving rise to half-maximal fluorescence intensity.

Series [2] has as its system luciferase expression in the liver. Nature of the series: Luciferase mRNA in vivo evaluation using lipid nanoparticle compositions (liver luciferase expression). Further details: species or system mice. The settings on record: LNP with FLuc mRNA, tail vein injection, liver measured 4 hours after administration; for Liver Luc @ 0.5 mg/kg (ng luc/g liver): 0.5 mg mRNA/kg. Here is the method:
A lipid of structure (I), DSPC, cholesterol and PEG-lipid were solubilized in ethanol at a molar ratio of 50:10:38.5:1.5 or 47.5:10:40.8:1.7. Lipid nanoparticles (LNP) were prepared at a total lipid to mRNA weight ratio of approximately 10:1 to 30:1. Briefly, the mRNA was diluted to 0.2 mg/mL in 10 to 50 mM citrate buffer, pH 4. Syringe pumps were used to mix the ethanolic lipid solution with the mRNA aqueous solution at a ratio of about 1:5 to 1:3 (vol/vol) with total flow rates above 15 mL/min. The ethanol was then removed and the external buffer replaced with PBS by dialysis. Finally, the lipid nanoparticles were filtered through a 0.2 μm pore sterile filter.
Studies were performed in 6-8 week old female C57BL/6 mice (Charles River) 8-10 week old CD-1 (Harlan) mice (Charles River) according to guidelines established by an institutional animal care committee (ACC) and the Canadian Council on Animal Care (CCAC). Varying doses of mRNA-lipid nanoparticle were systemically administered by tail vein injection and animals euthanized at a specific time point (e.g., 4 hours) post-administration. Liver and spleen were collected in pre-weighed tubes, weights determined, immediately snap frozen in liquid nitrogen and stored at −80° C. until processing for analysis.
For liver, approximately 50 mg was dissected for analyses in a 2 mL FastPrep tubes (MP Biomedicals, Solon Ohio). ¼″ ceramic sphere (MP Biomedicals) was added to each tube and 500 μL of Glo Lysis Buffer—GLB (Promega, Madison Wis.) equilibrated to room temperature was added to liver tissue. Liver tissues were homogenized with the FastPrep24 instrument (MP Biomedicals) at 2×6.0 m/s for 15 seconds. Homogenate was incubated at room temperature for 5 minutes prior to a 1:4 dilution in GLB and assessed using SteadyGlo Luciferase assay system (Promega). Specifically, 50 μL of diluted tissue homogenate was reacted with 50 μL of SteadyGlo substrate, shaken for 10 seconds followed by 5 minute incubation and then quantitated using a CentroXS^3 LB 960 luminometer (Berthold Technologies, Germany). The amount of protein assayed was determined by using the BCA protein assay kit (Pierce, Rockford, Ill.). Relative luminescence units (RLU) were then normalized to total μg protein assayed. To convert RLU to ng luciferase a standard curve was generated with QuantiLum Recombinant Luciferase (Promega). […]
Compounds of structure (I) were formulated using the following molar ratio: 47.5% cationic lipid/10% distearoylphosphatidylcholine (DSPC)/40.8% Cholesterol/1.7% PEG lipid (“PEG-DMA” 2-[2-(ω-methoxy (polyethyleneglycol2000)ethoxy]-N,N-ditetradecylacetamide). Relative activity was determined by measuring luciferase expression in the liver 4 hours following administration via tail vein injection as described in Example 1. […]

On to `CCCCCCCCC(CCCCCC)COC(=O)CCCCCN(CCCCCC(=O)OCC(CCCCCC)CCCCCCCC)CCNCCCCCC(=O)OCC(CCCC)CCCCCC` (centres unmarked) [Compound 1], for which, in series [1], the pKa (in general, the negative logarithm of the acid dissociation constant) was 6.39. Also, in series [2] (footnote *: dosed at 0.3 mg/kg), the “Liver Luc (ng luc/g liver), dosed at 0.3 mg/kg” value is 1235 ± 345* ng luc/g liver.
Consider `CCCCCCCCC(CCCCCC)COC(=O)CCCCCC(CCCCCC(=O)OCC(CCCCCC)CCCCCCCC)NCCCCCC(=O)OCC(CCCC)CCCCCC` (centres unmarked) [Compound 2], for which the pKa in series [1] turned out to be 5.76. Also, in series [2], the “Liver Luc @ 0.5 mg/kg (ng luc/g liver)” value turned out to be 29 ± 4 ng luc/g liver.
With `CCCCCCCCC(CCCCCC)COC(=O)CCCCCNCCN(CCCCCC(=O)OCC(CCCCCC)CCCCCCCC)CCCCCC(=O)OCC(CCCCCC)CCCCCCCC` (centres unmarked) [Compound 3], in series [1], the pKa was 6.5. In addition, the “Liver Luc @ 0.5 mg/kg (ng luc/g liver)” value in series [2] worked out at 33 ± 1 ng luc/g liver.
On the same counts, the results for `CCCCCCCCC(CCCCCC)COC(=O)CCCCCC(CCCCCC(=O)OCC(CCCCCC)CCCCCCCC)NCCCCCC(=O)OCC(CC)CCCC` (centres unmarked) [Compound 4] are 6.11 and 102 ± 42 ng luc/g liver.
